Consider 7 molecules from article PMC9926234, “Iterative computational design and crystallographic screening identifies potent inhibitors targeting the Nsp3 macrodomain of SARS-CoV-2” (Proceedings of the National Academy of Sciences of the …, 2023).

Where “and” joins values, the source holds several entries; their conditions need not be identical. Equal values may be shown once. Read-outs that look alike come from different tables or passages of the source.

Holding throughout (type): binding
Assay [1] addresses T1, SARS-CoV-2 NSP3 Mac1 (Severe acute respiratory syndrome coronavirus 2, UniProt P0DTD1). Nature of the assay: biochemical. As to conditions: for IC50: read-out: IC50; for Ki: Ki estimation from HTRF-derived IC50, Cheng-Prusoff, peptide 400nM, Kd 2.68µM, read-out: Ki***.
Assay [2] addresses T1, SARS-CoV-2 NSP3 Mac1. Further details: contains a conserved macrodomain enzyme (Mac1). As to conditions: for Spearman est (compound concentration vs apparent Tm): DSF dose responsiveness, 1 µM nsp3 mac1, adj p given. In outline: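 Differential scanning fluorimetry using 5 µM Fluorescent Yellow dye in place of SYPRO Orange. Compounds run in triplicate at seven two-fold dilutions from 1,000 or 100 μM, with ΔTma taken against a DMSO control in the same plate region. Dose-response significance assessed by Spearman's coefficient between concentration and ΔTma.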

Assay [3] concerns the target T1, SARS-CoV-2 NSP3 Mac1. The settings on record: for Refined occupancy: ligand occupancy after refinement (phenix.refine).
Setting [4] is: PanDDA event map, 1 minus background density correction, crystal soaking of Mac1.
The mark [5] stands for this setting: true hit = binding in crystallographic soaking or the HTRF-based binding assay.
[6] abbreviates: HTRF ADPr-peptide displacement from SARS-CoV-2 Mac1.
Setting [7] is: HTRF, several values in a cell are separate determinations.
[8] abbreviates: maximal thermal upshift vs DMSO control.
Setting [9] is: overall hit flag: binding in crystallographic soaking or the HTRF-based binding assay.
Where [10] appears, read: PanDDA 1-BDC (background density correction) of the event, crystal soak 100 mM, PanDDA run dmso_34.
[11] abbreviates: crystal soak, compound concentration 100 mM, PanDDA run dmso_34, series docking_lead-like_1.
[12] abbreviates: ligand modeled in the crystal structure, crystal soak 100 mM, PanDDA run dmso_34.
The mark [13] stands for this setting: PanDDA 1-BDC value of the event, crystal soak, compound concentration 100 mM, per dataset.
Where [14] appears, read: crystal soak, compound concentration 100 mM, per dataset.

Usually IC50 stands for the point on the concentration scale where inhibition reaches its midpoint. The Ki is a dissociation constant, usually derived from enzyme kinetics or from competition with a known ligand. With `O=C(CSc1nnn[nH]1)c1c[nH]c2ncc(Br)cc12` [R1104], at SARS-CoV-2 NSP3 Mac1 [1] (HTRF), the IC50 was 55.3 µM. For the same molecule, the Ki on SARS-CoV-2 NSP3 Mac1 [1] was 48.1 µM. In addition, on SARS-CoV-2 NSP3 Mac1 [2], the “Spearman est (compound concentration vs apparent Tm)” value was 0.54. The “DSF max dTma” value at SARS-CoV-2 NSP3 Mac1 [2] (maximal thermal upshift) is 1.16 ˚C. Further, the 1-BDC on SARS-CoV-2 NSP3 Mac1 [3] (PanDDA event map, 1-BDC of the hit dataset, crystal soak, compound concentration 100 mM) is listed as 0.3; at SARS-CoV-2 NSP3 Mac1 [3] (setting [4]) it was 0.27. For the same molecule, the Refined occupancy at SARS-CoV-2 NSP3 Mac1 [3] (crystal soaking of Mac1) worked out at 54. Also, the “HIT*” value at SARS-CoV-2 NSP3 Mac1 [3] (setting [5]) is “Y”.
For the molecule `O=C(O)CC1CN(c2ncnc3[nH]ccc23)CCO1` (stereo not shown) [Z9572], the half-inhibitory concentration (IC50) at SARS-CoV-2 NSP3 Mac1 [1] (setting [6]) is 227 µM and 234 µM; at SARS-CoV-2 NSP3 Mac1 [1] (setting [7]), 227 µM. Moreover, at SARS-CoV-2 NSP3 Mac1 [1], the Ki was 197 µM. Moreover, on SARS-CoV-2 NSP3 Mac1 [2], the “Spearman est (compound concentration vs apparent Tm)” value turned out to be 0.62. Further, the “DSF max dTma” value on SARS-CoV-2 NSP3 Mac1 [2] (setting [8]) is 0.66 °C. The molecule also showed a 1-BDC on SARS-CoV-2 NSP3 Mac1 [3] (setting [4]) of 0.09. Moreover, the “Modeled?” value on SARS-CoV-2 NSP3 Mac1 [3] (ligand modeled in structure, crystal soak, Compound_concentration 100 mM) is listed as “TRUE”. Moreover, at SARS-CoV-2 NSP3 Mac1 [3] (crystal soaking of Mac1), the Refined occupancy is recorded as 18. The “HIT*” value at SARS-CoV-2 NSP3 Mac1 [3] (setting [9]) is listed as “Y”.
For the molecule `O=c1[nH]nc(C2CCCN(c3ncnc4[nH]ccc34)C2)o1` (stereo not shown) [Z7655], the half-inhibitory concentration (IC50) on SARS-CoV-2 NSP3 Mac1 [1] (setting [6]) and at SARS-CoV-2 NSP3 Mac1 [1] (setting [7]) was 279 µM each time. Also, the inhibitory constant (Ki) on SARS-CoV-2 NSP3 Mac1 [1] is 243 µM. At SARS-CoV-2 NSP3 Mac1 [2], the “Spearman est (compound concentration vs apparent Tm)” value was 0.22. For the same molecule, the “DSF max dTma” value at SARS-CoV-2 NSP3 Mac1 [2] (setting [8]) amounted to 0.6 °C. Also, the 1-BDC on SARS-CoV-2 NSP3 Mac1 [3] (setting [10]) and on SARS-CoV-2 NSP3 Mac1 [3] (setting [4]) was 0.09 throughout. For the same molecule, the “PanDDA hit?” value at SARS-CoV-2 NSP3 Mac1 [3] (setting [11]) was “TRUE”. For the same molecule, on SARS-CoV-2 NSP3 Mac1 [3] (setting [12]), the “Modeled?” value is “TRUE”. The same molecule registered a Refined occupancy at SARS-CoV-2 NSP3 Mac1 [3] (crystal soaking of Mac1) of 18. The “HIT*” value on SARS-CoV-2 NSP3 Mac1 [3] (setting [9]) is “Y”.
As to `CCc1c[nH]c2ncnc(N3CCCC(Cc4nc(C)no4)C3)c12` (stereo not shown) [Z5531], the IC50 at SARS-CoV-2 NSP3 Mac1 [1] (setting [6]) and on SARS-CoV-2 NSP3 Mac1 [1] (setting [7]) was 148 µM each time. At SARS-CoV-2 NSP3 Mac1 [1], the Ki was 129 µM. Further, the “Spearman est (compound concentration vs apparent Tm)” value on SARS-CoV-2 NSP3 Mac1 [2] is reported as 0.68. The “DSF max dTma” value at SARS-CoV-2 NSP3 Mac1 [2] (setting [8]) was 0.6 °C. In addition, the 1-BDC on SARS-CoV-2 NSP3 Mac1 [3] (setting [10]) and at SARS-CoV-2 NSP3 Mac1 [3] (setting [4]) was 0.2 throughout. Moreover, the “PanDDA hit?” value at SARS-CoV-2 NSP3 Mac1 [3] (setting [11]) was “TRUE”. Also, the “Modeled?” value on SARS-CoV-2 NSP3 Mac1 [3] (setting [12]) is listed as “TRUE”. Further, the Refined occupancy at SARS-CoV-2 NSP3 Mac1 [3] (crystal soaking of Mac1) turned out to be 40. The “HIT*” value at SARS-CoV-2 NSP3 Mac1 [3] (setting [9]) was “Y”.
As to `CC(O)CNc1cc(N2CC3(CCC3)C(F)(C(=O)O)C2)ncn1` (stereo not shown) [Z5722], the IC50 on SARS-CoV-2 NSP3 Mac1 [1] (setting [6]) is 464 µM and 460 µM. Moreover, at SARS-CoV-2 NSP3 Mac1 [1], the inhibition constant Ki was 404 µM. Moreover, the “Spearman est (compound concentration vs apparent Tm)” value on SARS-CoV-2 NSP3 Mac1 [2] is reported as 0.59. Further, on SARS-CoV-2 NSP3 Mac1 [2] (setting [8]), the “DSF max dTma” value worked out at 0.96 °C. Besides, the 1-BDC is 0.18 at SARS-CoV-2 NSP3 Mac1 [3] (PanDDA event map background density correction, crystal soak, Compound_concentration 100 mM, PanDDA run dmso_34) and 0.18 on SARS-CoV-2 NSP3 Mac1 [3] (setting [4]). Also, the “PanDDA hit?” value at SARS-CoV-2 NSP3 Mac1 [3] (crystal soak, Compound_concentration 100 mM, Echo dispense 40 nl, PanDDA run dmso_34) is reported as “TRUE”. Besides, the “Modeled?” value at SARS-CoV-2 NSP3 Mac1 [3] (ligand modeled in crystal structure, crystal soak, Compound_concentration 100 mM, PanDDA run dmso_34) is “TRUE”. This molecule also had a Refined occupancy at SARS-CoV-2 NSP3 Mac1 [3] (crystal soaking of Mac1) of 36. Also, the “HIT*” value on SARS-CoV-2 NSP3 Mac1 [3] (setting [9]) is “Y”.
For `O=C(NC1c2ccccc2CC1C(=O)O)c1ccc(NC(=O)C2CC2)cc1` (stereo not shown) [Z9604], the IC50 on SARS-CoV-2 NSP3 Mac1 [1] (setting [6]) is > 250 µM. Besides, the “Spearman est (compound concentration vs apparent Tm)” value on SARS-CoV-2 NSP3 Mac1 [2] came out at 0.76. In addition, the “DSF max dTma” value on SARS-CoV-2 NSP3 Mac1 [2] (setting [8]) is 0.79 °C. Also, the 1-BDC on SARS-CoV-2 NSP3 Mac1 [3] (setting [13]) and at SARS-CoV-2 NSP3 Mac1 [3] (setting [4]) was 0.04 throughout. For the same molecule, the “PanDDA hit?” value on SARS-CoV-2 NSP3 Mac1 [3] (setting [14]) is “TRUE”. For the same molecule, on SARS-CoV-2 NSP3 Mac1 [3] (ligand modeled in the crystal structure, crystal soak, compound concentration 100 mM, per dataset), the “Modeled?” value is reported as “TRUE”. In addition, on SARS-CoV-2 NSP3 Mac1 [3] (crystal soaking of Mac1), the Refined occupancy turned out to be 8. Further, the “HIT*” value at SARS-CoV-2 NSP3 Mac1 [3] (setting [9]) is “Y”.
As to `O=C(NC1c2cccc(O)c2CC1C(=O)O)c1cnc(NC2CCOCC2)cn1` (stereo not shown) [8539_0007], at SARS-CoV-2 NSP3 Mac1 [1], the Ki is 5.6 µM. Moreover, the “Spearman est (compound concentration vs apparent Tm)” value on SARS-CoV-2 NSP3 Mac1 [2] stood at 0.24. Also, the “DSF max dTma” value at SARS-CoV-2 NSP3 Mac1 [2] (maximal thermal upshift) is on record as 3.42 ˚C. For the same molecule, the 1-BDC at SARS-CoV-2 NSP3 Mac1 [3] (setting [13]) turned out to be 0.2; on SARS-CoV-2 NSP3 Mac1 [3] (setting [4]), 0.19. In addition, the “PanDDA hit?” value at SARS-CoV-2 NSP3 Mac1 [3] (setting [14]) is “TRUE”. Moreover, the “Modeled?” value on SARS-CoV-2 NSP3 Mac1 [3] (ligand modeled from this dataset, compound concentration 100 mM, Echo dispense volume 40 or 80 nl) is “TRUE”. On SARS-CoV-2 NSP3 Mac1 [3] (crystal soaking of Mac1), this molecule yielded a Refined occupancy of 60. Besides, the “HIT*” value on SARS-CoV-2 NSP3 Mac1 [3] (setting [5]) was “Y”.
